In US9744175B2, “Compositions of combinations of non-covalent DNA binding agents and anti-cancer and/or anti-inflammatory agents and their use in disease treatment” (INDUS PHARMACEUTICALS, INC., priority 2012, dated 2017):
Several values for one entry are separate records, joined by “and”; a condition that tells them apart may be missing. Equal values may be shown once.

Tests used:
U2OS = experiment: Growth inhibition in tumor cell lines (Table 2); assay type: cell-based, human; conditions: Osteosacroma, WT, lack of EGFR
SW403 = experiment: Growth inhibition in tumor cell lines (Table 2); assay type: cell-based, human; conditions: SW403, colon, WT (EGFR over expression)
Jurkat = experiment: Growth inhibition in tumor cell lines (Table 2); assay type: cell-based, human; conditions: leukemia, PTEN deficiency
Wild type yeast = experiment: Alamar Blue cell survival assay in yeast cells; assay type: cell-based
Procedure: (§1) The cells are diluted 100-fold in yeast complete medium. 100 μL of diluted cells are seeded in 96 well plates with or without a non-covalent DNA binding compound and incubated for 24 hours at 30° C. The following day, an equal volume of yeast complete medium containing 1% alamar blue is added and incubated at 30° C. for two hours. Fluorescence intensity is measured in a fluorescent reader to calculate the inhibition effect of non-covalent DNA binding agents in mutant and wild type yeast cells.
(§2) Yeast cells that carry mutations in different genes involved in homologous recombination (rad 50, rad51, rad52, and rad57) and nucleotide excision/double strand repair (rad1) are grown to stationary culture overnight.

yeast rad1 mutation = experiment: Alamar Blue cell survival assay in yeast cells; assay type: cell-based
Procedure: as §1, §2

yeast rad50 mutation = experiment: Alamar Blue cell survival assay in yeast cells; assay type: cell-based
Procedure: as §1, §2

yeast rad51 mutation = experiment: Alamar Blue cell survival assay in yeast cells; assay type: cell-based
Procedure: as §1, §2

yeast rad52 mutation = experiment: Alamar Blue cell survival assay in yeast cells; assay type: cell-based
Procedure: as §1, §2

[1] = Intravenous and oral pharmacokinetics in male Sprague-Dawley rats; assay type: in vivo, rat; conditions: for AUC0-inf / AUC0-t / Cmax / Tmax: rat blood; for AUC0-inf / AUC0-t / Cmax: mean ± SD; for Tmax: median; for T1/2: harmonic mean; for clearance as share of normal liver blood flow in rat (55 mL/min/kg) / mean volume of distribution as multiple of total body water: intravenous administration; for F (oral absolute bioavailability): oral 20 mg/kg vs IV 3 mg/kg, dose-normalised AUC0-inf
Procedure: Intravenous and oral pharmacokinetic studies are conducted on the novel non-covalent DNA binding agents, NSC 718813, NSC 723734 and NSC 726260, in male Sprague-Dawley rats. The studies are conducted in a parallel design with two groups of four male rats each for intravenous and oral administration of the test agents. The protocols for the studies are approved by the appropriate institutional animal care and use committee.
Groups of rats designated to receive oral doses of the novel non-covalent DNA binding agents of the invention molecules receive an oral dose of 20 mg/kg in a formulation vehicle comprised of N,N-dimethylacetamide (DMA), polyethylene glycol 400 (PEG400), ethanol, Cremophor EL and water (10:10:10:5:65 v/v). The dose volume for the oral doses of the test compounds is 8 mL/kg. Groups of rats are randomized to receive intravenous doses of agents. These rats receive a single intravenous bolus dose of 3 mg/kg of the test compound in a vehicle comprised of DMA:PEG400:ethanol:Cremophor EL:0.9% sodium chloride (saline) (10:10:10:5:65 v/v). The dose volume for intravenous doses of test agents is 1 mL/kg.
Predose blood samples are obtained from all rats from both, oral and intravenous dosing groups. For the intravenously dosed rats, blood samples (100 uL each) are obtained at 0.083, 0.25. 0.5, 1.0, 2.0, 4.0, 8.0, 12.0 and 24.0 hours post-dose. For the oral dose groups, the sampling times are identical to the intravenous dose group, except that the 0.083 hour sample is not collected. Following the collection of the blood samples, an equal volume of water is added to the blood sample to hemolyze the blood sample and the samples are stored frozen at −70° C. until bioanalysis.
Plasma samples are analyzed for the concentration of the test non-covalent DNA binding agents of the invention using an HPLC method with mass spectrometric (MS/MS) detection, following a liquid:liquid extraction of the plasma samples using a dichloromethane:ethyl acetate (20:80) mixture. To a 100 μL aliquot of sample, 50 μL of an internal standard (NSC 723732) is added. After mixing the internal standard wen, 2.5 mL of the extracting solvent (dichloromethane:ethyl acetate 20:80 v/v) is added. The mixture is vortexed for one minute and the samples are centrifuged at 3000 rpm for 3 minutes. Approximately 2 mL of the supernatant is taken from the centrifuged tubes and the sample is dried under a nitrogen stream at 50° C. The residue is reconstituted with 100 μL of the mobile phase and 20 μL is injected into the HPLC system for analysis. The mobile phase is comprised of milli-Q water:acetonitrile:formic acid (20:80:0.05) adjusted to pH 7.5 with ammonia.
The analysis of the test agent concentration is conducted by an HPLC method using a Shimadzu Prominence HPLC system and the eluent is analyzed using an API 4000 LC-MS/MS system (Applied Biosystems). The samples are analyzed on a HyPurity Advance, 50×4.6 mm, 5 u, Thermoelectron column. An injection volume of 20 μL is used for the analytical sample and the flow rate of the mobile phase is 0.6 mL/minute. Mass spectrometric analysis is conducted on the eluent using the API 4000 LC-MS/MS system and the mass parameters are analyzed for MRM transitions using NSC 723732 as the internal standard, in a positive ionization mode at a temperature of 400 C.

U2OS Wild type = experiment: siRNA inhibition of MMR, p53 and REV functions, alamar blue growth inhibition; assay type: cell-based, human; conditions: for Fold improvement in IC50, mlh1: mlh1 siRNA vs control; for IC50: no siRNA knock out, read-out: IC50, Control; for Fold improvement in IC50, p53: p53 siRNA vs control; for Fold improvement in IC50, rev: rev siRNA vs control
Procedure: (§3) siRNA specific for different genes is purchased from Dharmacon (Thermo. Fisher Scientific Dharmacon Products, Lafayette, Colo. 80026) and the protocol recommended by the supplier is utilized. Confluent cells are trypsinized and 5000 cells are seeded in a well in the presence or absence of siRNA in 100 μL medium. The cells are incubated with siRNA for two days. A non-covalent DNA binding agent of the invention is added in a 10 μL volume and incubated for another 48 hours. After treatment with the agent, the medium is replaced with 1% alamar blue containing medium to measure fluorescence after two hours.
as §3, with “from Dharmacon (Thermo Fisher Scientific” for “from Dharmacon (Thermo. Fisher Scientific”, “two hours. […] The results are presented in FIGS. 14-18 (SEQ ID NO:3-12, respectively) and Table 7.” for “two hours.”

[2] = tested on: SW620 colon tumor xenograft; experiment: SW620 colon tumor xenograft model; assay type: in vivo, mice
[3] = IV-bolus 3 mg/kg, rat, listed as NSC723734, 3 mg/kg

| SMILES | IC50 (U2OS) | IC50 (SW403) | IC50 (Jurkat) | IC50 (Wild type yeast) | IC50 (yeast rad1 mutation) | IC50 (yeast rad50 mutation) | IC50 (yeast rad51 mutation) | IC50 (yeast rad52 mutation) | AUC0-inf ([1]; IV-bolus 3 mg/kg) | AUC0-t ([1]; IV-bolus 3 mg/kg) | Cmax ([1]; IV-bolus 3 mg/kg) | Tmax ([1]; IV-bolus 3 mg/kg) | T1/2 ([1]; IV-bolus 3 mg/kg, rat) | CLblood ([1]; IV-bolus 3 mg/kg, rat, 3 mg/kg) | AUC0-inf ([1]; oral solution 20 mg/kg) | AUC0-t ([1]; oral solution 20 mg/kg) | Cmax ([1]; oral solution 20 mg/kg) | Tmax ([1]; oral solution 20 mg/kg) | T1/2 ([1]; oral solution 20 mg/kg, rat) | Fold improvement in IC50, mlh1 (U2OS Wild type) | other results |
| --- | --- | --- | --- | --- | --- | --- | --- | --- | --- | --- | --- | --- | --- | --- | --- | --- | --- | --- | --- | --- | --- |
| COc1cc2c(cc1OCCCCN1CCN(CCCCOc3cc4c(cc3OC)C(=O)N3CCC[C@H]3C=N4)CC1)N=C[C@@H]1CCCN1C2=O [NSC 723734] | 0.178 µM | 0.55 µM | 0.045 ± 0.004 µM | > 250 µM | 15 µM | 17 µM | 28 µM | 50 µM | 4405 ng·h/mL | 4246 ± 311 ng·h/mL | 4053 ng/mL | 0.083 h | 6.3 h | 11.4 ± 0.5 mL/min/kg | 216 ng·h/mL | 196 ± 93 ng·h/mL | 90.5 ± 56 ng/mL | 0.25 h | 2.3 ± 0.7 h | 3.5 fold | Vdss ([1]; IV-bolus 3 mg/kg, rat, 3 mg/kg): 3.2 ± 0.3 L/kg; CLblood [1, 3]: 11 mL/min/kg; Vdss [1, 3]: 3 L/kg; clearance as share of normal liver blood flow in rat (55 mL/min/kg) ([1]; rat): about 20%; mean volume of distribution as multiple of total body water ([1]; rat): about 4 times; F (oral absolute bioavailability) ([1]; rat): 0.7%; F (oral absolute bioavailability) ([1]; rat, listed as NSC723734): approximately 1%; Cmax ([1]; oral solution 20 mg/kg, listed as NSC723734): 91 ng/mL; IC50 (U2OS Wild type): 0.07 µM; Fold improvement in IC50, p53 (U2OS Wild type): 1.2 fold; Fold improvement in IC50, rev (U2OS Wild type): >70 fold; dose-reduction index (DRI) of combination with cisplatin ([2]; SW620 colon tumor xenograft mouse model): significant dose-reduction index (DRI); quantitative analysis of combination with cisplatin ([2]; combination doses achieving >50% efficacy): synergistic with cisplatin; synergy with cisplatin in SW620 colon tumor xenograft mouse model ([2]; intermittent IP administration of the two drugs): excellent synergy with cisplatin; synergy with cisplatin at lower (minimally active) cisplatin dose ([2]; intermittent IP administration, SW620 xenograft in mice): synergistic with cisplatin and restores antitumor activity of cisplatin; activity in SW620 colon tumor xenograft model ([2]; intraperitoneal, once daily administration for 7 days): superior activity to NSC718813; reduction in SW620 colon tumor xenograft ([2]; intravenous and intraperitoneally administered): dose-dependent reduction |
| COc1cc2c(cc1OCCCC(=O)Nc1ccc3ccc4cccc5ccc1c3c45)N=C[C@@H]1CCCN1C2=O [NSC 726260] | 0.397 µM | 1.02 µM | 0.114 ± 0.0267 µM | 45 µM | 15 µM | 20 µM | 4.5 µM | 15 µM | 5112 ng·h/mL | 5058 ± 874 ng·h/mL | 5587 ng/mL | 0.083 h | 4.8 h | 10.4 mL/min/kg and 10.4 ± 2.0 mL/min/kg | 2536 ng·h/mL | 2474 ± 844 ng·h/mL | 438 ng/mL | 4.0 h | 4.6 ± 1.7 h | 135 fold | Vdss ([1]; IV-bolus 3 mg/kg, rat): 1.9 L/kg; clearance as share of normal liver blood flow in rat (55 mL/min/kg) ([1]; rat): about 20%; mean volume of distribution as multiple of total body water ([1]; rat): about 3 times; IC50 (U2OS Wild type): 0.4 µM; Fold improvement in IC50, p53 (U2OS Wild type): 1.1 fold; Fold improvement in IC50, rev (U2OS Wild type): 135 fold; pharmacological activity in SW620 colon tumor xenograft model ([2]; combined IV and IP administration): limited pharmacological activity |
| COc1cc2c(cc1OCCCCCOc1cc3c(cc1OC)C(=O)N1CCC[C@H]1C(=O)N3)N=C[C@@H]1CCCN1C2=O [NSC 718813] | 0.202 µM | 0.21 µM | 0.017 ± 0.0002 µM | > 250 µM | 11 µM | 90 µM | 7 µM | 90 µM | 2424 ± 309 ng·h/mL | 2376 ± 304 ng·h/mL | 5723 ± 1005 ng/mL | 0.08 h | 2.2 ± 0.4 h | approximately 20 mL/min/kg | 345 ± 142 ng·h/mL | 303 ± 129 ng·h/mL | 112 ± 32 ng/mL | 0.5 h | 1.8 ± 0.6 h | 3.0 fold | Vdss ([1]; IV-bolus 3 mg/kg, rat): 1.5 ± 0.4 L/kg; CLblood ([1]; IV-bolus 3 mg/kg, rat, listed as NSC 718813/1, 3 mg/kg): 20.0 ± 2.9 mL/min/kg; time with rat blood concentrations well above in vitro GI50 and/or TGI ([1]; intravenous 3 mg/kg): at least 4 hours; F (oral absolute bioavailability) ([1]; rat): 2%; time with measurable blood levels post-dose ([1]; oral dose 20 mg/kg): up to 8 hours; metabolic stability compared with naturally occurring antitumor antibiotic analogs ([1]; rat, inferred from systemic clearance): better metabolic stability; IC50 (U2OS Wild type): 0.3 µM; Fold improvement in IC50, p53 (U2OS Wild type): 10 fold; Fold improvement in IC50, rev (U2OS Wild type): 5 fold; tumor burden in SW620 colon tumor xenograft model ([2]; Q1 Dx5 IV followed by Q4Dx3 IP administration): reduces tumor burden |
